# Measurements from patent US5571820A, “Heterocyclic compound” (Taisho Pharmaceutical Co., Ltd., priority 1992, dated 1996).
# Legend:
# serotonin 4 receptor [1] = target: T1, serotonin 4 receptor (Cavia porcellus, UniProt O70528); test: Serotonin 4 receptor stimulating activity: twitch responses of electrically stimulated ileum longitudinal muscle strips; format: cell-based, guinea pig (Hartley); settings: for EC50: twitch responses, guinea pig ileum longitudinal muscle strips, cumulative additions of agonist, read-out: ED50 of the serotonin 4 receptor stimulating activity
# T1 construct: from tissue; host or cells: ileum longitudinal muscle strips of Hartley guinea pig
# T1 sequence (O70528 whole entry): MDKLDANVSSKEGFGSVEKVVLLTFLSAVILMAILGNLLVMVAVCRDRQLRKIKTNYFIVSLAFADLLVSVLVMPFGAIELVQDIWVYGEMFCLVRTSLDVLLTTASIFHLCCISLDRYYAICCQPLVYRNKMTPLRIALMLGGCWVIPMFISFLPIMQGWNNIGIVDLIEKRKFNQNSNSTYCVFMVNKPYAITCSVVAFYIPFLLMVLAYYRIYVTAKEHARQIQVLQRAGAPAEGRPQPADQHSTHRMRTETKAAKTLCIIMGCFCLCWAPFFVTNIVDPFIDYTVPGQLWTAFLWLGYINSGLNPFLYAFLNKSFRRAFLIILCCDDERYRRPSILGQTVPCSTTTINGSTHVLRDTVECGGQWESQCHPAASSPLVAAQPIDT
# Excerpt: Experiment 1. Serotonin 4 Receptor Stimulating Activity Compounds Tested
# Twitch responses were examined in longitudinal muscle strips of guinea pig by a modification of the method described in The Journal of Pharmacology and Experimental Therapeutics, 252, 1378, 1990.
# From Hartley guinea pigs, a section of ileum 25 cm in length and proximal to the ileocecal junction was removed. The longitudinal muscle strips obtained from two segments of ileum about 4 cm each in length were used for this experiment. The longitudinal muscle strips were suspended in Krebs' solution at 32° to 34° C. and bubbled with 95% O2 and 5% CO2 under a load of about 0.8 g. Twitch responses were recorded under electrical stimulation of 0.2 Hz, 1 msec pulse duration, using force displacement transducers. The longitudinal muscle strips, stimulated at supramaximal voltage, were allowed to equilibrate for about an hour. […] The test was carried out by exposing the strips to cumulative additions of agonist at least at 45-minute intervals.
# [2] = system: gastrointestinal motor functions; settings: Alimentary Pharmacology and Therapeutics, 6, 273, 1992; cited from earlier work
# serotonin 4 receptor [3] = settings: Alimentary Pharmacology and Therapeutics, 6, 273, 1992; cited from earlier work
SMILES,EC50 (serotonin 4 receptor [1]),also measured
"NCCc1c[nH]c2ccc(O)cc12 [5-hydroxytryptamine (5-HT), 5-hydroxytryptamine]",–,enhancement of twitch responses (serotonin 4 receptor [1]; 10^-8 M): twitch responses were enhanced
COc1cc(N)c(Cl)cc1C(=O)NC1CCN(CCCOc2ccc(F)cc2)CC1OC (centres unmarked) [Cisapride],–,effect on gastrointestinal motor functions and conditions [2]: accelerate gastrointestinal motor functions and improve gastrointestinal conditions; stimulation of serotonin 4 receptor (serotonin 4 receptor [3]): stimulants of serotonin 4 receptor
CCn1c(=O)c(C(=O)N[C@H]2C[C@H]3CC[C@@H](C2)N3C)cc2ccccc21 [Compound 2],0.138 µM,–
CCCn1c(=O)c(C(=O)N[C@H]2C[C@H]3CC[C@@H](C2)N3C)cc2ccccc21 [Compound 3],0.413 µM,–
CCCCn1c(=O)c(C(=O)N[C@H]2C[C@H]3CC[C@@H](C2)N3C)cc2ccccc21 [Compound 4],> 3 µM,–
CC(C)Cn1c(=O)c(C(=O)N[C@H]2C[C@H]3CC[C@@H](C2)N3C)cc2ccccc21 [Compound 5],0.974 µM,–
CN1[C@@H]2CC[C@H]1C[C@@H](NC(=O)c1cc3ccccc3[nH]c1=O)C2 [Compound 6],> 3 µM,–
CCCCn1c(=O)c(C(=O)N[C@H]2C[C@H]3CC[C@@H](C2)N3C)c(O)c2ccccc21 [Compound 7],> 3 µM,–
COc1cc(N)c(Cl)cc1C(=O)NC1CCN2CCCC1C2 (centres unmarked) [renzapride],–,effect on gastrointestinal motor functions and conditions [2]: accelerate gastrointestinal motor functions and improve gastrointestinal conditions; stimulation of serotonin 4 receptor (serotonin 4 receptor [3]): stimulants of serotonin 4 receptor
